According to PMC4448982, “LP-925219 maximizes urinary glucose excretion in mice by inhibiting both renal SGLT1 and SGLT2” (Pharmacology Research & Perspectives, 2015):

Tests used:
mouse SGLT1 = molecular target: T1, mouse SGLT1 (Mus musculus, UniProt Q8C3K6); experiment: 14C-AMG uptake assay, HEK293 cells expressing mouse SGLT1; assay type: cell-based; details: mean ± SD
T1 construct: expressed in transfected cells; host or cells: HEK293 (per abstract)
T1 sequence (Q8C3K6 1-665): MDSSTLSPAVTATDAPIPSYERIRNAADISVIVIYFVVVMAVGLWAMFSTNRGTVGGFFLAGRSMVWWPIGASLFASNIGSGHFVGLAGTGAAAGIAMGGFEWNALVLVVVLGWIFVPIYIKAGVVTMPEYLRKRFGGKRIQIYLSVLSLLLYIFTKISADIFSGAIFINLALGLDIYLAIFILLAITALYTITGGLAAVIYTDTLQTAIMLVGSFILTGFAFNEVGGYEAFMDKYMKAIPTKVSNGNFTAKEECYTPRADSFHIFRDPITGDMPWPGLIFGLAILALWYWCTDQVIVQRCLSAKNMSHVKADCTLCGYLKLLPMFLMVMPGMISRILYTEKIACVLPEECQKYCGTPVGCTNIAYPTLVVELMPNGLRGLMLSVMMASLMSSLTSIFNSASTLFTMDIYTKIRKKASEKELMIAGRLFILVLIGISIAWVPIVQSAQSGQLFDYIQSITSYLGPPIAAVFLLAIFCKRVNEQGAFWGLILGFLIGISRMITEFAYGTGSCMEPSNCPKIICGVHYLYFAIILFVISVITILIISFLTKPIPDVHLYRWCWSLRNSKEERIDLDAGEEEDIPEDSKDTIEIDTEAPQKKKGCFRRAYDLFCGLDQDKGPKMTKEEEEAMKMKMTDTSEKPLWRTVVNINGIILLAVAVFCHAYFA
Text: (§1) Methods for generating cell lines expressing mouse, rat, and dog SGLT1 and SGLT2 are published (Powell et al. [2013b], [2014]). Full-length coding sequence of human SGLT1 (NP_000334) and human SGLT2 (NP_003032.1) with an HA-tag at the N-terminus were cloned into the mammalian expression vector pIRESpuro2 (Clontech, Mountain View, CA). HEK293 cells (ATCC, Manassas, VA) were transfected with the pIRESpuro2 vector containing human SGLT1 or SGLT2 and bulk stable cell lines were selected in the presence of 0.5 μg/mL of puromycin.
(§2) Cell lines expressing SGLT1 or SGLT2 were plated into poly-D-lysine-coated 384-well plates, and culture overnight in cell growth medium. Cells were washed, and then incubated in uptake buffer ([…], […] KCl, […] CaCl2, […] MgCl2, […] HEPES/Tris, 1 mg/mL of bovine serum albumin, pH7.4) containing [^14C]α-methylglucopyranoside (^14C-AMG), a nonmetabolizable glucose analog specific for sodium-dependent glucose transporters (Wright and Turk [2004]). The inhibition of SGLT1 or SGLT2 was determined by measuring SGLT1/2-mediated ^14C-AMG uptake in the presence of increasing compound concentrations of LP-925219. […] Standard sigmoidal dose–response model curves were fitted, and the IC50 value was computed as the LP-925219 concentration that inhibited the ^14C-AMG uptake by 50% between baseline and maximum uptake.

rat SGLT2 = molecular target: T2, rat SGLT2 (Rattus norvegicus, UniProt P53792); experiment: 14C-AMG uptake assay, cells expressing rat SGLT2; assay type: cell-based; details: mean ± SD
T2 construct: expressed in transfected cells; host or cells: HEK293 (per abstract)
T2 sequence (P53792 1-670): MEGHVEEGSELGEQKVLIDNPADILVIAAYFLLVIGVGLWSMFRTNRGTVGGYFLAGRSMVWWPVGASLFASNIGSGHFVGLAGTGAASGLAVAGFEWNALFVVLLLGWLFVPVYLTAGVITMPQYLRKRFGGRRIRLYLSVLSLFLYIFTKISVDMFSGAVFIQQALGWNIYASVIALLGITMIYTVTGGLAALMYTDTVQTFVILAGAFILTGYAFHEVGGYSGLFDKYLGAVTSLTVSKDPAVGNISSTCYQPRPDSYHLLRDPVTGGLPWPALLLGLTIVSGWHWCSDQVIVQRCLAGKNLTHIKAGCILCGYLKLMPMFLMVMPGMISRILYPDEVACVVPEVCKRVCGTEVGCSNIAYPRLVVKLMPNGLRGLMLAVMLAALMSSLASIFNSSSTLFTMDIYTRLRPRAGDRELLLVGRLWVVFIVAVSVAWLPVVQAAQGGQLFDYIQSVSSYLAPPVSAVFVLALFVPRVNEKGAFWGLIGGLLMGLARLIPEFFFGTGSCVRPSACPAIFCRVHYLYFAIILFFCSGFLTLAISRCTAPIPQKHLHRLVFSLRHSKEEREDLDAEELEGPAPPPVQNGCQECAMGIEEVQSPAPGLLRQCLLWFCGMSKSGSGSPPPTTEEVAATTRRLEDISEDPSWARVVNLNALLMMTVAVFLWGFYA
Text: as §1, §2

**Q.** What does the source list for COc1ccc(Cc2cc([C@@H]3O[C@H](SC)[C@@H](O)[C@H](O)[C@H]3O)ccc2Cl)cc1 [LP-925219]?
**A.** IC50 (mouse SGLT1): 22.6 ± 1 nM; IC50 (rat SGLT2): 0.3 ± 0.2 nM
